One molecule from ChEMBL document CHEMBL1152723, “Remarkable enhancement in the DNA-binding ability of C2-fluoro substituted pyrrolo[2,1-c][1,4]benzodiazepines and their anticancer potential” (2009) can be followed below.

Common to all, as to type: functional
One assay concerns OVCAR-4. The experiment in a line: Growth inhibition of human OVCAR4 cells after 48 hrs by sulforhodamine B protein assay. The note with it: OVCAR-4, 48 h. (In SRB staining, fixed cells bind dye roughly in proportion to their protein.)
For another assay, the system named is OVCAR-8. The experiment in a line: Growth inhibition of human OVCAR8 cells after 48 hrs by sulforhodamine B protein assay. Particulars: OVCAR-8, 48 h.
A further assay relates to 786-0. Kind of assay: Growth inhibition of human 786-0 cells after 48 hrs by sulforhodamine B protein assay. Particulars: 786-0, 48 h.
A further assay relates to RXF 393. Kind of assay: Growth inhibition of human […] cells after 48 hrs by sulforhodamine B protein assay. The note with it: RXF 393, 48 h.
The subject of another assay is UO-31. The experiment in a line: Growth inhibition of human UO31 cells after 48 hrs by sulforhodamine B protein assay. The note with it: UO-31, 48 h.
The next assay deals with PC-3. The experiment in a line: Growth inhibition of human PC3 cells after 48 hrs by sulforhodamine B protein assay. The note with it: PC-3, 48 h.
A short description of assay [1]: Growth inhibition of human Hs 578T cells after 48 hrs by sulforhodamine B protein assay.
The next assay deals with MDA-MB-435. Kind of assay: Growth inhibition of human MDA-MB-435 cells after 48 hrs by sulforhodamine B protein assay. Particulars: MDA-MB-435, 48 h.
The subject of another assay is HOP-92. Kind of assay: Growth inhibition of human HOP92 cells after 48 hrs by sulforhodamine B protein assay. Particulars: HOP-92, 48 h.
The test system of the next assay is NCI-H226. Kind of assay: Growth inhibition of human NCI-H226 cells after 48 hrs by sulforhodamine B protein assay. The note with it: NCI-H226, 48 h.
The test system of the next assay is NCI-H460. Kind of assay: Growth inhibition of human NCI-H460 cells after 48 hrs by sulforhodamine B protein assay. The note with it: NCI-H460, 48 h.
For a further assay, the system named is SW-620. Kind of assay: Growth inhibition of human SW620 cells after 48 hrs by sulforhodamine B protein assay. The note with it: SW-620, 48 h.
The next assay deals with Malme-3M. The experiment in a line: Growth inhibition of human MALME-3M cells after 48 hrs by sulforhodamine B protein assay.
The next assay relates to SK-MEL-2. The experiment in a line: Growth inhibition of human SK-MEL-2 cells after 48 hrs by sulforhodamine B protein assay. Particulars: SK-MEL-2, 48 h.
The subject of another assay is SK-MEL-28. Kind of assay: Growth inhibition of human SK-MEL-28 cells after 48 hrs by sulforhodamine B protein assay. The note with it: SK-MEL-28, 48 h.
For the next assay, the system named is SK-MEL-5. Kind of assay: Growth inhibition of human SK-MEL-5 cells after 48 hrs by sulforhodamine B protein assay. Particulars: SK-MEL-5, 48 h.

In general, GI50 refers to the concentration that inhibits growth by half. The low end stands for more potent growth inhibition, the high end for less potent growth inhibition. As for `COc1cc2c(cc1OCCCN1CCN(CCCOc3cc4c(cc3OC)C(=O)N3CC(F)C[C@H]3C=N4)CC1)N=C[C@@H]1CC(F)CN1C2=O` (stereo partly specified), the GI50 was 460 nM in the assay on OVCAR-4; 100 nM with OVCAR-8; below 30 nM in the assay with 786-0; 110 nM in the assay with RXF 393; 1030 nM in the assay on UO-31; 10 nM with PC-3. Besides, the GI50 in assay [1] was below 40 nM; with MDA-MB-435, below 30 nM; with HOP-92, below 90 nM; in the assay with NCI-H226, 100 nM; in the assay with NCI-H460, below 10 nM; with SW-620, below 50 nM. The GI50 in the assay with Malme-3M was below 20 nM; with SK-MEL-2, 500 nM; with SK-MEL-28, below 30 nM; in the assay with SK-MEL-5 it was below 40 nM.
